According to PMC8302598, “Rapid discovery of self-assembling peptides with one-bead one-compound peptide library” (Nature Communications, 2021):
“Also recorded” adds a separate entry of the source.

What was measured:
[1] = tested on: HeLa cells; assay: CCK-8 cell viability assay; assay type: cell-based; conditions: incubation 24 and 72 h, n=3
Protocol: (§1) Finally, we examined the biological effects and cellular distribution of the eight self-assembling peptides on HeLa cells. […] In order to observe the nanomaterials under fluorescent microscopy, each peptide preparation was spiked with 3% of the same peptide N-terminally labeled with FITC, and then added to HeLa cells at a final concentration of 40 μM. […] After 4 h of incubation with the peptide assemblies, the cells were observed under a fluorescent microscope (Figs. 4c, d and Supplementary 22). […] It is important to note that LDFPI nanoparticle was small (8 nm diameter) even after 4 h incubation. Its small size may in part explain its ability to pass through the nuclear pore complexes[32],[33]. […] To evaluate the cell uptake mechanism of peptide assemblies (YFTEF, ISDNL, and FGFDP) into the cytoplasm, we treated the cells at 4 °C or with various endocytosis inhibitors (Supplementary Fig. 23).
TentaGel S Resin was purchased from Rapp Polymere (Germany, loading 0.31 mmol/g). 9-Fluorenylmethoxycarbonyl (Fmoc)-protected amino acids, 2-(1H-benzotriazole-1-yl)-1,1,3,3- tetramethyluronium hexafluoro-phosphate (HBTU), and Wang resin were obtained from GL Biochem (China). Trifluoroacetic acid (TFA), fluorescein isothiocyanate (FITC), N-methyl morpholine (NMM), piperidine, and N,N′-dimethylformamide (DMF) were all from Beijing Chemical Plant (China). 1,2-Ethanedithiol (EDT) was purchased from Alfa Aesar (USA). Dimethyl sulfoxide (DMSO) was purchased from Aldrich Chemical Co. and used without further purification. Cyanogen bromide (CNBr) was from J&K Chemical (China). The HeLa cell lines were received from the Cell Culture Center of the Institute of Basic Medical Sciences, Chinese Academy of Medical Sciences (Beijing, China). Cell culture medium and fetal bovine serum were from WisentInc (Multicell, WisentInc, St. Bruno. The cell counting kit-8 assay (CCK-8) (Beyotime Institute of Biotechnology, China) was used. Hela cells were maintained Dulbecco’s modified eagle’s medium (DMEM) with 10% fetal bovine serum and 1% penicillin. All cells were cultured in a humidified atmosphere containing 5% CO2 at 37 °C.
Supplementary Figure 21 . a-h. CCK-8 cell viability assay for 8 pentapeptides (FTISD, ITSVV, YFTEF, ISDNL , LDFPI, FAGFT,
FGFDP, FFVDF) after incubation with HeLa cells for 24 and 72 h.
Standard Deviatio n (n=3).
(1 picture or pasted object on this page, not shown here)

[2] = tested on: HeLa cells; assay: Cellular uptake and distribution of FITC-labeled peptide assemblies (fluorescence/confocal microscopy); assay type: cell-based; conditions: 40 μM (methods: 50 μM); for Cellular uptake: HeLa cells, 3% of peptide N-terminally FITC-labeled, 4 h incubation, fluorescence microscope; for Cellular distribution of peptide assemblies: live HeLa cells, 3% FITC-labeled peptide, 4 h, Lyso-Tracker Red, Hoechst
Protocol: as §1
Hela cell line was purchased from cell culture center of Institute of Basic Medical Sciences, Chinese Academy of Medical Sciences (Beijing, China). Hela cells cultured with pentapeptide nanomaterials (50 μM) were imaged using a Zeiss LSM710 confocal laser scanning microscope (Jena, Germany). The Hela cells were seeded in complete DMEM in a humidified atmosphere with 5% CO2 and then cultured at 37 °C overnight. Then, 1 mL of serum-free fresh medium containing pentapeptide (50 μM) was used for replacing the medium, and the cells were cultured for 4 h and washed with PBS three times before being imaged using a Zeiss LSM710 confocal laser scanning microscope with a 40× objective lens. The cell lines had been authenticated utilizing short tandem repeat DNA profiling. All cells were tested negative for cross-contamination of other human cells and mycoplasma contamination.
Supplementary Figure 22. Confocal microscopy of HeLa cells after incubation with FITC-labeled pentapeptide assemblies (from left to right: FT ISD, IT SVV, Y FT E F, ISDNL , L D FP I, FAG FT, FG FDP, FFVD F ) for 4 h; peptide concentration used was 50 μM. 3% of the assembled peptides was N-terminally labeled with FITC.
Supplementary Figure 23 . Cell uptake pathway analysis for FITC-labeled pentapeptide assemblies YFTEF, ISDNL and […]. a) CLSM images of HeLa cells incubated with pentapeptides (50 μ M ) at di fferent temperatures (37 or 4 °C) and in the presence of various endocytosis inhibitors, such as amiloride (2 mM), M-β-CD (5 mM), and chlorpromazine (50 μM). The scale bar is 10 μm. b) Relevant quantitative analysis of images from ‘a’. 3% of the assembled peptides was N-terminally labeled with FITC, E rror ba rs represent Standard Deviation (n=3). […]

[3] = Self-assembly of resynthesized soluble pentapeptides; assay type: physicochemical; conditions: self-assembly under aqueous environment
From the text: Once the screening method has been validated with our model KLVFF peptide, a totally random pentapeptide library with 19[5] permutations (cysteine was omitted from the library) was constructed using our previously published methods (Supplementary Fig. 3)[23]. Again, TentaGel S resin (loading of 0.31 mmol/g) was used as the solid support. The pentapeptides in the library were N-terminally capped with NBD. […] The positive bead with an intense fluorescent signal (pointed with a solid arrow) was noted. The rest of the beads were considered negative or weak positive beads. From a total of approximately 100 000 beads screened, we selected a total of eight strongest fluorescent positive beads and four dark beads as negative beads. The peptides were then resynthesized in soluble form and purified by high-performance liquid chromatography (HPLC) for testing (Supplementary Figs. 4–12). The amino acid sequences of the eight self-assembling pentapeptides are FTISD, ITSVV, YFTEF, ISDNL, LDFPI, FAGFT, FGFDP, and FFVDF. Not unexpectedly, of the 40 amino acids in these eight pentapeptides, 50% are hydrophobic residues, predominated by Phe (11 Phe, 4 Ile, 3 Val, and 2 Leu). For the remaining 20 amino acids, six are acidic residues (5 Asp and 1 Glu) and seven are neutral and hydrophilic (4 Thr and 3 Ser). The rest are 2 Pro, 2 Gly, 1 Tyr, 1 Asn, and 1 Ala. All eight peptides have at least two hydrophobic residues. Six out of the eight peptides have one negatively charged residue (Asp or Glu). The remaining two peptides are neutral. […] For the Pro containing pentapeptides, LDFPI and FGFDP, the Pro residue, which promotes peptide turns, resides at the fourth and fifth positions, but not in the middle. Not unexpectedly, all the four randomly selected negative non-assembling peptides (RITTR, PLVKA, PFTTR, and QIMRW) have very different sequences, and contain at least one positive charged amino acid.
To estimate the propensity of the identified peptides to self-assemble, the critical micelle concentrations (CMC) of the eight positive peptides and four negative peptides were determined, and the results are shown in Table 1 and Supplementary Figs. 13, 14. The CMC of all the eight positive peptides were detectable and found to range between 8.4 and 14.8 μM, indicating the propensity for these peptides to self-assemble under aqueous environment. […] Hydrophobicity of peptides can be predicted by the value of GRAVY[28] with more negative value for more hydrophilic peptides. Of the four negative assembling peptides, two have a negative GRAVY value. […] Experimental testing, such as the screening strategy described in this work, is needed. This is because multiple factors, including hydrophobicity, hydrogen-bonding, electrostatic interactions, and positions of each residue within the peptides, all contribute to the assembling and final morphology of the self-assembled nano-structure. […]

Substance	Assembly [3]	Cell toxicity (CCK-8 cell viability) [1]	Cellular uptake [2]	Cellular distribution of peptide assemblies [2]
FAGFT [self-assembling pentapeptide identified from OBOC library]	Yes	No cell toxicity was observed	Obvious cellular uptake	mainly confine to the cytoplasm
ISDNL [self-assembling pentapeptide identified from OBOC library]	Yes	No cell toxicity was observed	Obvious cellular uptake	distributed inside the lysosomes throughout the cytoplasm; also recorded: distribute only to the cytoplasm, in granular forms
FFVDF [self-assembling pentapeptide identified from OBOC library, forms nanofibers]	Yes	No cell toxicity was observed	–	formed aggregates outside the cell; also recorded: formed some fluorescent aggregates outside the cells

Continued, in another order:

Assembly [3]	Substance	Cell toxicity (CCK-8 cell viability) [1]	Cellular uptake [2]	Cellular distribution of peptide assemblies [2]
Yes	FGFDP [self-assembling pentapeptide identified from OBOC library]	No cell toxicity was observed	Obvious cellular uptake	distribute only to the cytoplasm, in granular forms
Yes	YFTEF [self-assembling pentapeptide identified from OBOC library]	No cell toxicity was observed	Obvious cellular uptake	distributed throughout the cytoplasm but not the nucleus
Yes	LDFPI [self-assembling pentapeptide identified from OBOC library]	No cell toxicity was observed	Obvious cellular uptake	localized to the nucleus and perinuclear areas
Yes	FTISD [self-assembling pentapeptide identified from OBOC library]	No cell toxicity was observed	–	stained both the cell membrane and cytoplasm
Yes	ITSVV [self-assembling pentapeptide identified from OBOC library]	No cell toxicity was observed	–	localized on the cell membrane; also recorded: staining of the cell membrane and minor staining of the cytoplasm
